Test results taken from ChEMBL document CHEMBL1154198, “Chemical genetics of Plasmodium falciparum” (Nature, 2010).

Assays:
[1] = tested on: Plasmodium falciparum; test: ST_JUDE: Plasmodium falciparum 3D7 EC50 (uM) as measured by SYBR green dye; assay type: functional, organism-based
[2] = tested on: Plasmodium falciparum; test: ST_JUDE: Plasmodium falciparum K1 EC50 (uM) as measured by SYBR green dye; assay type: functional, organism-based

SMILES	EC50 [1] [µM]	EC50 [2] [µM]
CSc1ccccc1C(=O)Nc1nc(-c2ccccn2)cs1	6.82	2.04
C=CC[n+]1c(/C=C2\C=CC=CN2CC)ccc2cc(C)ccc21	2.56	2.53
COc1cccc(C2Nc3ccc(C(C)=O)cc3C3C=CCC32)c1OC (stereo not drawn)	3.42	8.22
CCCCOC(=O)c1c(N)n(-c2ccccc2OC)c2nc3ccccc3nc12	3.83	> 15
CCCC(=O)N1CCN(c2ccc(NC(=O)c3cccc(OCC)c3)cc2Cl)CC1	> 15	> 15
CCOc1ccccc1C(=O)NCCc1csc(-c2ccc(OC)cc2)n1	> 15	7.53
CCN1C=CC=C/C1=C/c1ccc2cc(C)ccc2[n+]1CC	0.543	0.453
Cc1cc(C)nc(/N=C(\N)Nc2ccc(Cl)cc2C(=O)c2ccccc2)n1	3.59	8.05
CN(C)CCCNCc1ccc2[nH]c3c(c2c1)CCCC3	3.4	> 15
CCOc1cc(/C=N/N=C(N)N)ccc1OCc1ccccc1	0.867	6.56
O=C(O)c1ccc(NC2=C(n3nnc4ccccc43)C(=O)c3ccccc3C2=O)cc1	> 15	1.49
Cc1ccc(NC(=O)C2c3ccccc3C(=O)N(C3CCCC3)C2c2cccs2)cc1 (stereo not drawn)	> 15	1.44
C=C(C)CCC(C)N1CCC(n2nccc2NC(=O)Nc2ccccc2Cl)CC1 (stereo not drawn)	3.7	> 15
Oc1ccc(Br)cc1CN1CCN(Cc2ccccc2C(F)(F)F)CC1	1.88	0.45
COC(=O)c1ccc(NC(=O)CSc2ccc3nnc(-c4ccc(C)cc4)n3n2)cc1	> 15	> 15
CCOC(=O)c1cnc2ccc(OC)cc2c1NCCCN1CCOCC1	5.94	4.38
CCCN1CCN(CCCNC(=S)Nc2ccc3nc(N4CCN(C)CC4)cc(C)c3c2)CC1	5.43	6.85
CCCCN(C)Cc1c(C)nc2ccc(OCc3ccccc3)cc2c1O	> 15	> 15
Oc1ccc(Br)cc1CN1CCN(Cc2ccc(Cl)cc2)CC1	1.48	0.215
CCC1(C)CC(CCNCc2ccc(F)cc2)(c2ccc(F)cc2)CCO1 (stereo not drawn)	1.15	0.518
CC(=O)N(C1=C(NCCO)C(=O)c2ccccc2C1=O)c1cccc(Br)c1	0.0171	0.0286
O=C(Nc1cccc(Br)c1)C1(c2ccccc2)CC1(Cl)Cl (stereo not drawn)	4.43	3.11

SMILES	EC50 [1] [µM]	EC50 [2] [µM]
COc1ccc(/C=C/c2cc[n+](C)cc2)cc1	3.4	3.82
Cc1ccc(C)c(NC(=O)c2c(-c3c(Cl)cccc3Cl)noc2C)c1	0.537	4.36
CC(=O)NC(c1ccc(Cl)cc1Cl)c1ccc2cccnc2c1O (stereo not drawn)	3.22	3.01
C/C(=N/NC(N)=S)C1C(=O)c2ccccc2C1=O	> 15	> 15
CCC(C)c1ccccc1OCC(O)CNC1CCCC1 (stereo not drawn)	1.73	0.959
CCCCN(C)CCNC(=O)c1cc2c(-c3ccccc3F)nn(C)c2s1	1.62	> 15
Cc1ccnc(N2C(=O)c3ccccc3C2Nc2ccccc2C)c1 (stereo not drawn)	> 15	> 15
Cc1cccc(NC(=O)c2cc3ccccc3cc2O)c1	1.15	0.602
COc1ccc(Cl)cc1NC(=O)C1c2ccccc2C(=O)N(CC(C)C)C1c1cccs1 (stereo not drawn)	0.367	0.386
Cc1cccc(C(=O)ONC(=N)Cc2cccc3ccccc23)c1	4.7	2.63
CCc1ccc(CN2CCC(n3nccc3NC(=O)Nc3ccccc3C)CC2)cc1	6.75	> 15
O=C(Cc1ccc(Cl)cc1)Nc1ccc(-c2nc3ccccc3[nH]2)cc1	> 15	> 15
Oc1cccc2ccc[n+](CC(O)Cn3c4ccccc4c4ccccc43)c12 (stereo not drawn)	1.31	> 15
Cc1cccc(NC(c2ccc(Cl)cc2)c2ccc3cccnc3c2O)n1 (stereo not drawn)	3.54	3.14
CC(=O)N1CCc2c(sc(NC(=O)c3cc([N+](=O)[O-])ccc3Cl)c2C#N)C1	4.07	1.32
COc1ccc(C(O)(CCC(C)C)C(CN2CCOCC2)c2ccccc2)cc1 (stereo not drawn)	3.67	3.27
CCCCCC(O)(c1ccccc1)C(CN1CCOCC1)c1ccccc1 (stereo not drawn)	3.26	2.04
CC(=O)N(C1=C(N2CCCCC2)C(=O)c2ccccc2C1=O)c1ccc(C)cc1	7.46	4.48
CCOC(=O)C1=C(CN(C)c2ccc(F)cc2)NC(=O)NC1c1ccc(F)cc1 (stereo not drawn)	3.51	1.23
CN(C)c1cc[n+](CC(=O)c2ccc(Cl)cc2)cc1	2.44	1.74
CN1CCN(c2nc(Nc3ccc(O)cc3)nc3ccccc23)CC1	2.75	6.2
CCC1=[N+](C)c2cccc3cccc(c23)N1C	5.13	4.41
